The molecules below were run against T1, human S1P1 receptors (Homo sapiens, UniProt P21453) (assay: Human S1P Receptor Calcium FLIPR Antagonist Assay, HeLa Gα16 S1P1). Conditions: HeLa-S1P1/Gα16 cells; antagonism of Ca2+ signal of probing agonist GNF-AC-1 at EC80.
T1 construct: expressed in transfected cells; host or cells: HeLa (human cervix carcinoma, ATCC CCL2), HeLa-S1P1/Gα16 cell clone 1
Type: cell-based
Excerpt: Human S1P Receptor Calcium FLIPR Antagonist Assays
The assay measures intracellular changes of Ca^2+ mediated by the synthetic probing agonist 3-{[2-(2-Trifluoromethyl-biphenyl-4-yl)-benzo[b]thiophen-5-ylmethyl]-amino}-propionic acid (GNF-AC-1) in the HeLa-S1P1/Gα16 cell clone 1: HeLa (human cervix carcinoma, ATCC CCL2) cells stably expressing N-terminally myc-tagged human S1P1 receptors (GenBank™ accession No. NM_001400; UNIPROT P21453) and promiscuous Gα16 protein (GenBank™ accession number M63904, Swissprot P30679) are cultured at 37° C., 5% CO2, and 95% relative humidity. The cells are plated in 384 well black plates (10,000 cells per well). After 24 hours the cells are loaded with Fluo4-AM (1.6 μM in HBSS and 2.5 mM probenicid) for 1 hour at 37° C. After washing, the cells are transferred to the FLIPR. The test compounds are added at different concentrations (≦30 μM) in HBSS in the presence of 0.1% BSA and changes in fluorescence are recorded (indication of agonism). The probing agonist is added 15 minutes afterwards to the wells at a concentration giving 80% of the maximal activity (EC80). After each addition time points are collected as follows: 20 time points (2 seconds) before the addition of the agonist (Fmin) and 60 time points (1 or 2 seconds) after the addition of the probing agonist. This allows the determination of the maximal fluorescence (Fmax). The ratio (Fmax-Fmin)/Fmin is plotted against the log of the concentration of the test compounds and the IC50 (relative antagonism) is determined with the help of XLfit-4 software. […] A dose response curve of the probing agonist is determined on each plate in parallel. The compounds of the invention are typically active in this assay at a concentration ranging typically from <1 nM to 30 μM, usually from less than 1 nanomolar to 1 micromolar.

T1 sequence (P21453 whole entry): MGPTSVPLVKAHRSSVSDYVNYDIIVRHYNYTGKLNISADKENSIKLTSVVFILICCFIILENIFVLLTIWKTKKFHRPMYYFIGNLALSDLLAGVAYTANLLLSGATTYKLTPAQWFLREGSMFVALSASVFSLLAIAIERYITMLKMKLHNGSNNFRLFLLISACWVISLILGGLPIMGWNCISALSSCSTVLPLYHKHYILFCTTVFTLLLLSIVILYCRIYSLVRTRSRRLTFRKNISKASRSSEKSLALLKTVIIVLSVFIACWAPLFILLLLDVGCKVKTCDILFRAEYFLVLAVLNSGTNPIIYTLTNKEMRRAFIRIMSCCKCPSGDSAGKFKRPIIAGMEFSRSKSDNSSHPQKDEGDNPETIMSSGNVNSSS

| IC50 [nM] | Structure (SMILES) |
| --- | --- |
| 1.1 | Cc1cc(S(=O)(=O)Nc2cccc(-c3cc(C)c(C(=O)N(C)[C@@H](CO)C(=O)O)c(C)c3)c2)c(C)cc1Cl [Example 138, (S)-2-{[3′-(4-Chloro-2,5-dimethyl-benzenesulfonylamino)-3,5-dimethyl-biphenyl-4-carbonyl]-methyl-amino}-3-hydroxy-propionic acid] |
| 5 | Cc1cc(S(=O)(=O)Nc2cccc(-c3ccc(C(=O)NC4(C(=O)O)CN(C)C4)c(C)c3)c2)c(C)cc1Cl [Example 55, 3-{[3′-(4-Chloro-2,5-dimethyl-benzenesulfonylamino)-3-methyl-biphenyl-4-carbonyl]-amino}-1-methyl-azetidine-3-carboxylic acid] |
| 1.3 | Cc1cc(S(=O)(=O)Nc2cccc(-c3ccc(C(=O)NCC(=O)O)c(C)c3)c2)c(C)cc1Cl [Example 64, {[3′-(4-Chloro-2,5-dimethyl-benzenesulfonylamino)-3-methyl-biphenyl-4-carbonyl]-amino}-acetic acid] |
| 1.7 | Cc1cc(S(=O)(=O)Nc2cccc(-c3ccc(C(=O)N(C)[C@@H](CO)C(=O)O)cc3)c2)c(C)cc1Cl [Example 85, (S)-2-{[3′-(4-Chloro-2,5-dimethyl-benzenesulfonylamino)-biphenyl-4-carbonyl]-methyl-amino}-3-hydroxy-propionic acid] |
| 1.1 | Cc1cc(S(=O)(=O)Nc2cccc(-c3cc(C)c(C(=O)N(C)[C@@H](C)C(=O)O)c(C)c3)c2)c(C)cc1Cl [Example 139, (S)-2-{[3′-(4-Chloro-2,5-dimethyl-benzenesulfonylamino)-3,5-dimethyl-biphenyl-4-carbonyl]-methyl-amino}-propionic acid] |
| 3.5 | Cc1cc(S(=O)(=O)Nc2cccc(-c3cc(C)c(C(=O)NC4(C(=O)O)CCC4)c(C)c3)c2)c(C)cc1Cl [Example 147, 1-{[3′-(4-Chloro-2,5-dimethyl-benzenesulfonylamino)-3,5-dimethyl-biphenyl-4-carbonyl]-amino}-cyclobutanecarboxylic acid] |
| 4 | Cc1cc(S(=O)(=O)Nc2cccc(-c3cc(C)c(C(=O)NC4(C(=O)O)CN(C(=O)OC(C)(C)C)C4)c(C)c3)c2)c(C)cc1Cl [Example 144, 3-{[3′-(4-Chloro-2,5-dimethyl-benzenesulfonylamino)-3,5-dimethyl-biphenyl-4-carbonyl]-amino}-azetidine-1,3-dicarboxylic acid mono-tert-butyl ester] |
| 3 | Cc1cc(S(=O)(=O)Nc2cccc(-c3ccc(C(=O)NC4(C(=O)O)CNC4)c(C)c3)c2)c(C)cc1Cl [Example 51, 3-{[3′-(4-Chloro-2,5-dimethyl-benzenesulfonylamino)-3-methyl-biphenyl-4-carbonyl]-amino}-azetidine-3-carboxylic acid] |
| 2 | Cc1cc(S(=O)(=O)Nc2cccc(-c3cc(C)c(C(=O)NC4(C(=O)O)CCOCC4)c(C)c3)c2)c(C)cc1Cl [Example 146, 4-{[3′-(4-Chloro-2,5-dimethyl-benzenesulfonylamino)-3,5-dimethyl-biphenyl-4-carbonyl]-amino}-tetrahydro-pyran-4-carboxylic acid] |
| 1.7 | Cc1cc(S(=O)(=O)Nc2cccc(-c3cc(C)c(C(=O)NC4(C(=O)O)CC4)c(C)c3)c2)c(C)cc1Cl [Example 149, 1-{[3′-(4-Chloro-2,5-dimethyl-benzenesulfonylamino)-3,5-dimethyl-biphenyl-4-carbonyl]-amino}-cyclopropanecarboxylic acid] |
| 9.4 | Cc1cc(S(=O)(=O)Nc2cccc(-c3ccc(C(=O)N[C@H](CC(=O)O)c4ccccc4)cc3)c2)c(C)cc1Cl [Example 36, (R)-3-{[3′-(4-Chloro-2,5-dimethyl-benzenesulfonylamino)-biphenyl-4-carbonyl]-amino}-3-phenyl-propionic acid] |
| 1 | COc1cc(-c2cccc(NS(=O)(=O)c3cc(C)c(Cl)cc3C)c2)ccc1C(=O)N[C@@H](CO)C(=O)O [Example 71, (S)-2-{[3′-(4-Chloro-2,5-dimethyl-benzenesulfonylamino)-3-methoxy-biphenyl-4-carbonyl]-amino}-3-hydroxy-propionic acid] |
| 5 | Cc1cc(S(=O)(=O)Nc2cccc(-c3cnc(C(=O)N[C@@H](CO)C(=O)O)cn3)c2)c(C)cc1Cl [Example 79, (S)-2-({5-[3-(4-Chloro-2,5-dimethyl-benzenesulfonylamino)-phenyl]-pyrazine-2-carbonyl}-amino)-3-hydroxy-propionic acid] |
| 5.5 | Cc1cc(S(=O)(=O)Nc2cccc(-c3ccc(C(=O)NCc4nnn[nH]4)c(C)c3)c2)c(C)cc1Cl [Example 66, 3′-(4-Chloro-2,5-dimethyl-benzenesulfonylamino)-3-methyl-biphenyl-4-carboxylic acid (1H-tetrazol-5-ylmethyl)-amide] |
| 2.8 | Cc1cc(S(=O)(=O)Nc2cccc(-c3ccc(C(=O)N[C@@H](CO)C(=O)O)cc3)c2)c(C)cc1Cl [Example 28] |
| 1 | Cc1cc(S(=O)(=O)Nc2cccc(-c3cc(C)c(C(=O)NCC(=O)O)c(C)c3)c2)c(C)cc1Cl [Example 137, {[3′-(4-Chloro-2,5-dimethyl-benzenesulfonylamino)-3,5-dimethyl-biphenyl-4-carbonyl]-amino}-acetic acid] |
| 0.8 | Cc1cc(S(=O)(=O)Nc2cccc(-c3ccc(C(=O)N[C@H](CO)C(=O)O)c(C)c3)c2)c(C)cc1Cl [Example 46, (R)-2-{[3′-(4-Chloro-2,5-dimethyl-benzenesulfonylamino)-3-methyl-biphenyl-4-carbonyl]-amino}-3-hydroxy-propionic acid] |
| 1.5 | Cc1cc(S(=O)(=O)Nc2cccc(-c3ccc(C(=O)N[C@H](C(=O)O)[C@@H](C)O)c(C)c3)c2)c(C)cc1Cl [Example 47, (2S,3R)-2-{[3′-(4-Chloro-2,5-dimethyl-benzenesulfonylamino)-3-methyl-biphenyl-4-carbonyl]-amino}-3-hydroxy-butyric acid] |
| 3.5 | Cc1cc(S(=O)(=O)Nc2cccc(-c3cc(C)c(C(=O)N[C@H](CO)C(=O)O)c(C)c3)c2)c(C)cc1Cl [Example 133, (R)-2-{[3′-(4-Chloro-2,5-dimethyl-benzenesulfonylamino)-3,5-dimethyl-biphenyl-4-carbonyl]-amino}-3-hydroxy-propionic acid] |
| 5 | Cc1cc(S(=O)(=O)Nc2cccc(-c3cc(C)c(C(=O)NC(C)(C)C(=O)O)c(C)c3)c2)c(C)cc1Cl [Example 148, 2-{[3′-(4-Chloro-2,5-dimethyl-benzenesulfonylamino)-3,5-dimethyl-biphenyl-4-carbonyl]-amino}-2-methyl-propionic acid] |
| 1.5 | COC[C@H](NC(=O)c1ccc(-c2cccc(NS(=O)(=O)c3cc(C)c(Cl)cc3C)c2)cc1C)C(=O)O [Example 60, (S)-2-{[3′-(4-Chloro-2,5-dimethyl-benzenesulfonylamino)-3-methyl-biphenyl-4-carbonyl]-amino}-3-methoxy-propionic acid] |
| 4.7 | Cc1cc(S(=O)(=O)Nc2cccc(-c3ccc(CN[C@H](CO)C(=O)O)cc3)c2)c(C)cc1Cl [Example 157, (R)-2-{[3′-(4-Chloro-2,5-dimethyl-benzenesulfonylamino)-biphenyl-4-ylmethyl]-amino}-3-hydroxy-propionic acid] |
| 0.6 | Cc1cc(S(=O)(=O)Nc2cccc(-c3cc(C)c(C(=O)N[C@@H](CO)C(=O)O)c(C)c3)c2)c(C)cc1Cl [Example 131, (S)-2-{[3′-(4-Chloro-2,5-dimethyl-benzenesulfonylamino)-3,5-dimethyl-biphenyl-4-carbonyl]-amino}-3-hydroxy-propionic acid] |
| 0.7 | Cc1cc(S(=O)(=O)Nc2cccc(-c3ccc(C(=O)N[C@H](C(=O)O)[C@H](C)O)c(C)c3)c2)c(C)cc1Cl [Example 59, (2S,3S)-2-{[3′-(4-Chloro-2,5-dimethyl-benzenesulfonylamino)-3-methyl-biphenyl-4-carbonyl]-amino}-3-hydroxy-butyric acid] |
| 8.8 | Cc1cc(S(=O)(=O)Nc2cccc(-c3ccc(C(=O)N[C@@H](C)C(=O)O)cc3)c2)c(C)cc1Cl [Example 25, (S)-2-{[3′-(4-Chloro-2,5-dimethyl-benzenesulfonylamino)-biphenyl-4-carbonyl]-amino}-propionic acid] |
| 1.7 | COC[C@H](NC(=O)c1c(C)cc(-c2cccc(NS(=O)(=O)c3cc(C)c(Cl)cc3C)c2)cc1C)C(=O)O [Example 136, (S)-2-{[3′-(4-Chloro-2,5-dimethyl-benzenesulfonylamino)-3,5-dimethyl-biphenyl-4-carbonyl]-amino}-3-methoxy-propionic acid] |

| Structure (SMILES) | IC50 [nM] |
| --- | --- |
| Cc1cc(S(=O)(=O)Nc2cccc(-c3ccc(C(=O)N[C@@H](COC(C)(C)C)C(=O)O)c(C)c3)c2)c(C)cc1Cl [Example 48, (S)-3-tert-Butoxy-2-{[3′-(4-chloro-2,5-dimethyl-benzenesulfonylamino)-3-methyl-biphenyl-4-carbonyl]-amino}-propionic acid] | 9 |
